Assay results from PMC6247689, “Determination of the volatile and polyphenol constituents and the antimicrobial, antioxidant, and tyrosinase inhibitory activities of the bioactive compounds from the by-product of Rosa rugosa Thunb. var. plena Regal tea” (BMC Complementary and Alternative Medicine, 2018).
Values after ≈ are worked out from the molar mass of the structure shown. Like-named read-outs stand apart in the source and are kept apart here.

How the values were obtained:
[1] = tested on: candida albicans (ATCC 10231); assay: MIC and MFC, broth microdilution; assay type: cell-based; conditions: C. albicans; for MIC: 37 °C, 24 h
Experimental: (§1) The antimicrobial activity was measured by the method described by Xue. All standard strains were obtained from the Guangdong Microbiology Culture Center (Guangzhou, China). Listeria ivanovii (ATCC 19119) was cultured in BHI, Salmonella enteritidis enteritidis (ATCC 14028) Staphylococcus aureus (ATCC 25923) and Escherichia coli (ATCC 25922) were cultured in nutrient agar (NA) for 24 h and at 37 °C. candida albicans (ATCC 10231) was cultured in PHB at 37 °C for 24 h. Propionibacterium acnes (ATCC 6919) and Fusobacterium nucleatum (ATCC 10953) were cultured in CDC agar at 37 °C for 48 h in a YQX-II anaerobic incubator (Shanghai, China). The final cell counts in l mL of broth were approximately 10^6 colony-forming units (CFU/mL). A 10 mg/mL solution of miconazole nitrate and hydrochloride tetracycline in water was used as a positive control against fungi and bacteria, respectly.
(§2) The MIC and MBC or MFC values were determined as described previously by Xue. Briefly, 100 μL dilutions (approximately 100,000 CFU/mL) of Staphylococcus aureus, Escherichia coli, Salmonella enteritidis enteritidis, Fusobacterium nucleatum, and Candida albicans in nutrient broth and Listeria ivanovii and Propionibacterium acnes in GMA broth were inoculated into microtiter plates. Then, 100 μL aliquots of the solutions of the test compound were added after a two-fold serial dilution with nutrient broth (from 2 mg/mL to 3 μg/mL). Broths with 5% (v/v) DMSO were used as controls. The petri dishes were incubated at 37 °C for 24 h with the exception of Propionibacterium acnes and Fusobacterium nucleatum, which were incubated at 37 °C for 48 h. The MIC was recorded as the lowest concentration of sample showing no detectable growth. To determine the MBC or MFC values for no bacterial or fungus growth, 10 μL of sub-inhibitory concentrations of the test compounds were incubated on CDC or GMA agar plates for 24 or 48 h. Every determination was carried out in triplicate.

mushroom tyrosinase = assay: Tyrosinase inhibitory activity (spectrophotometric, DOPA substrate); assay type: biochemical; conditions: pH 6.8, 37 °C, 15 min, positive control = kojic acid
Experimental: The reaction mixture was vortexed and maintained at 37 °C for 15 min, and then the absorption maximum of dopachrome (set at 479 nm) was measured using a microplate reader (Molecular Devices, Sunnyvale, California, USA). The tests were performed in triplicate, and the value of tyrosinase inhibition activity was calculated as described above.

[2] = tested on: Escherichia coli (ATCC 25922); assay: MIC and MBC, broth microdilution; assay type: cell-based; conditions: E. coli; for MIC: 37 °C, 24 h
Experimental: as §1, §2

[3] = tested on: Listeria ivanovii (ATCC 19119); assay: MIC and MBC, broth microdilution; assay type: cell-based; conditions: L. ivanovii; for MIC: 37 °C, 24 h
Experimental: as §1, §2

[4] = tested on: Staphylococcus aureus (ATCC 25923); assay: MIC and MBC, broth microdilution; assay type: cell-based; conditions: S. aureus; for MIC: 37 °C, 24 h
Experimental: as §1, §2

[5] = tested on: Propionibacterium acnes (ATCC 6919); assay: MIC and MBC, broth microdilution; assay type: cell-based; conditions: P. acnes; for MIC: anaerobic, 37 °C, 48 h
Experimental: as §1, §2

[6] = tested on: Salmonella enteritidis enteritidis (ATCC 14028); assay: MIC and MBC, broth microdilution; assay type: cell-based; conditions: S. enteritidis enteritidis; for MIC: 37 °C, 24 h
Experimental: as §1, §2

[7] = tested on: Fusobacterium nucleatum (ATCC 10953); assay: MIC and MBC, broth microdilution; assay type: cell-based; conditions: F. nucleatum; for MIC: anaerobic, 37 °C, 48 h
Experimental: as §1, §2

[8] = DPPH radical scavenging activity; conditions: 30 min in the dark, 517 nm; positive control = ascorbic acid
Experimental: The antioxidant activity of RFCS and the standards were evaluated by DPPH radical scavenging activity using a slightly modified version of a previously reported method. […] Aliquots (100 μL) of the supernatants were transferred into a 96-well microplate, and the absorbance of each was recorded at 517 nm using a Spectramax Plus384 UV-Vis spectrophotometer (Molecular Devices, Sunnyvale, California, USA). […] The IC50 values, which represent the concentrations of rose samples and standard substance at which 50% of the DPPH radical was inhibited, were determined. The tests were performed in triplicate, and the percentage of DPPH scavenging was calculated using the following equation. Inhibition%=H0-H/H0×100 H:Absorbance of RFCS and the standards;H0:Absorbance of the blank

ABTS radical scavenging = conditions: 30 °C, 30 min; positive control = Trolox
Experimental: The ABTS assay of RFCS was performed according to a modified version of a previously reported method. Briefly, the stock solutions were generated by mixing equal quantities of 7.4 mM ABTS^●+ solution and 2.6 mM potassium persulfate solution, and the mixture was incubated at room temperature for 12 h in the dark. Then, the solution was equilibrated with 1 mL of ABTS^●+ solution with 50% ethanol serving as a positive control. The absorbance of the solution at 734 nm was 1.17 ± 0.02 units. […] The mixture was mixed vigorously and incubated at 30 °C for 30 min. The absorbance was then measured at […] using the spectrophotometer. […] Inhibition%=Absorbance of blank-Absorbance of sample/Absorbance of blank×100

[9] = Candida albicans, ATCC10231, read-out: MIC
[10] = Candida albicans, ATCC10231, read-out: MFC
[11] = Escherichia coli, ATCC25922, read-out: MIC
[12] = Escherichia coli, ATCC25922, read-out: MBC
[13] = Listeria ivanovii, ATCC19119, read-out: MIC
[14] = Listeria ivanovii, ATCC19119, read-out: MBC
[15] = Staphylococcus aureus, ATCC25923, read-out: MIC
[16] = Staphylococcus aureus, ATCC25923, read-out: MBC
[17] = Cutibacterium acnes, ATCC6919, read-out: MIC
[18] = Cutibacterium acnes, ATCC6919, read-out: MBC
[19] = Salmonella enterica, read-out: MIC
[20] = Salmonella enterica, read-out: MBC
[21] = Fusobacterium nucleatum, ATCC10953, read-out: MIC
[22] = Fusobacterium nucleatum, ATCC10953, read-out: MBC

Row | Molecule | MIC [1, 9] [µg/mL] | MFC [1, 10] [µg/mL] | Tyrosinase inhibition IC50 (mushroom tyrosinase) | MIC [2, 11] [µg/mL] | MBC [2, 12] [µg/mL] | MIC [3, 13] [µg/mL] | MBC [3, 14] [µg/mL] | MIC [4, 15] [µg/mL] | MBC [4, 16] [µg/mL] | MIC [5, 17] [µg/mL] | MBC [5, 18] [µg/mL] | MIC [6, 19] [µg/mL] | MBC [6, 20] [µg/mL] | MIC [7, 21] [µg/mL] | MBC [7, 22] [µg/mL] | DPPH radical scavenging activity IC50 [8] | ABTS radical scavenging activity IC50 (ABTS radical scavenging) | other results
1 | C=CC(C)(O)CCC=C(C)C (stereo not shown) [Linalool] | 250 (≈ 1620 µM) | 1000 (≈ 6480 µM) | 730 ± 44 a μg/mL | 250 (≈ 1620 µM) | 1000 (≈ 6480 µM) | 500 (≈ 3240 µM) | > 1000 | 250 (≈ 1620 µM) | 1000 (≈ 6480 µM) | 250 (≈ 1620 µM) | 1000 (≈ 6480 µM) | 500 (≈ 3240 µM) | > 1000 | 250 (≈ 1620 µM) | 1000 (≈ 6480 µM) | > 10,000 a μg/mL | > 10,000 a μg/mL | 
2 | CN(C)[C@@H]1C(=O)C(C(N)=O)=C(O)[C@@]2(O)C(=O)C3=C(O)c4c(O)cccc4[C@@](C)(O)[C@H]3C[C@@H]12.Cl [Hydrochloride tetracycline] |  |  |  |  |  |  |  |  |  |  |  |  |  |  |  |  |  | MBC [3]: < 0.1 µg/mL; MIC [3]: < 0.1 µg/mL; MIC [5]: 8 µg/mL; MIC [6]: 8 µg/mL; MBC [7]: 2 µg/mL; MIC [7]: 2 µg/mL
3 | CC(C)=CCCC(C)CCO (stereo not shown) [Citronellol] | 250 (≈ 1600 µM) | 500 (≈ 3200 µM) | 825 ± 31 a μg/mL | 250 (≈ 1600 µM) | 500 (≈ 3200 µM) | 250 (≈ 1600 µM) | 500 (≈ 3200 µM) | 125 (≈ 800 µM) | 500 (≈ 3200 µM) | 125 (≈ 800 µM) | 500 (≈ 3200 µM) | 250 (≈ 1600 µM) | 1000 (≈ 6400 µM) | 250 (≈ 1600 µM) | 1000 (≈ 6400 µM) | > 10000a μg/mL | > 10,000 a μg/mL | 
4 | C[C@@H]1O[C@@H](OC[C@H]2O[C@@H](Oc3c(-c4ccc(O)c(O)c4)oc4cc(O)cc(O)c4c3=O)[C@H](O)[C@@H](O)[C@@H]2O)[C@H](O)[C@H](O)[C@H]1O [Rutin] | 500 (≈ 819 µM) | 1000 (≈ 1640 µM) | 0.856 ± 0.014 µg/mL | 250 (≈ 409 µM) | 1000 (≈ 1640 µM) | 500 (≈ 819 µM) | 1000 (≈ 1640 µM) | 250 (≈ 409 µM) | 500 (≈ 819 µM) | 125 (≈ 205 µM) | 250 (≈ 409 µM) | 125 (≈ 205 µM) | 500 (≈ 819 µM) | 62 (≈ 102 µM) | 500 (≈ 819 µM) | 0.715 ± 0.017 c μg/mL | 0.621 ± 0.024 c μg/mL | Tyrosinase inhibition IC50 (mushroom tyrosinase; listed as rutin): < 1 µg/mL
5 | O=c1cc(-c2ccc(O)c(O)c2)oc2cc(O)cc(O)c12 [Luteolin] |  | 500 (≈ 1750 µM) | 0.613 ± 0.016 µg/mL |  | 1000 (≈ 3490 µM) | 500 (≈ 1750 µM) | 1000 (≈ 3490 µM) | 500 (≈ 1750 µM) | > 1000 |  | 500 (≈ 1750 µM) |  |  | 125 (≈ 437 µM) | 500 (≈ 1750 µM) | 0.507 ± 0.015 c μg/mL | 0.436 ± 0.026 c μg/mL | 
6 | CC(C)=CCC[C@](C)(O)[C@@H]1CC=C(C)CC1 [α-bisabolol] | 1000 (≈ 4500 µM) | > 1000 | 635 ± 22 a μg/mL | 500 (≈ 2250 µM) | 1000 (≈ 4500 µM) | 8 (≈ 36 µM) | 32 (≈ 144 µM) | 250 (≈ 1120 µM) | 1000 (≈ 4500 µM) | 125 (≈ 562 µM) | 500 (≈ 2250 µM) | 500 (≈ 2250 µM) | > 1000 | 8 (≈ 36 µM) | 32 (≈ 144 µM) | > 10,000 a μg/mL | > 10,000 a μg/mL | 
7 | Kaempferol-3-O-Rutinoside |  |  | 0.908 ± 0.021 µg/mL |  |  |  |  |  |  |  |  |  |  |  |  | 0.808 ± 0.024 c μg/mL | 0.719 ± 0.016 c μg/mL | MFC [1]: 1000 µg/mL; MIC [1]: 250 µg/mL; Tyrosinase inhibition IC50 (mushroom tyrosinase; listed as kaempferol-3-O-rutinosid): < 1 µg/mL; MBC [2]: > 1000 µg/mL; MIC [2]: 500 µg/mL; MBC [3]: 1000 µg/mL; MIC [3]: 500 µg/mL; MBC [4]: 1000 µg/mL; MIC [4]: 250 µg/mL; MBC [5]: 1000 µg/mL; MIC [5]: 500 µg/mL; MBC [6]: > 1000 µg/mL; MIC [6]: 500 µg/mL; MBC [7]: > 1000 µg/mL; MIC [7]: 500 µg/mL
8 | O=c1c(O[C@@H]2O[C@H](CO)[C@H](O)[C@H](O)[C@H]2O)c(-c2ccc(O)c(O)c2)oc2cc(O)cc(O)c12 [Hyperoside] | 250 (≈ 538 µM) | 1000 (≈ 2150 µM) | 0.762 ± 0.018 µg/mL | 250 (≈ 538 µM) | 1000 (≈ 2150 µM) | 250 (≈ 538 µM) | 500 (≈ 1080 µM) | 250 (≈ 538 µM) | 1000 (≈ 2150 µM) | 250 (≈ 538 µM) | 1000 (≈ 2150 µM) | 250 (≈ 538 µM) | 500 (≈ 1080 µM) | 250 (≈ 538 µM) | 500 (≈ 1080 µM) | 0.695 ± 0.021 c μg/mL | 0.526 ± 0.014 c μg/mL | Tyrosinase inhibition IC50 (mushroom tyrosinase; listed as hyperoside): < 1 µg/mL
9 | OCCc1ccccc1 [Phenylethyl alcohol] | 250 (≈ 2050 µM) | 500 (≈ 4090 µM) | 315 ± 13 b μg/mL | 250 (≈ 2050 µM) | 1000 (≈ 8190 µM) | 250 (≈ 2050 µM) | 500 (≈ 4090 µM) | 125 (≈ 1020 µM) | 250 (≈ 2050 µM) | 125 (≈ 1020 µM) | 500 (≈ 4090 µM) | 125 (≈ 1020 µM) | 500 (≈ 4090 µM) | 8 (≈ 65.5 µM) | 32 (≈ 262 µM) | > 10,000 a μg/mL | > 10,000 a μg/mL | 
10 | Clc1ccc(COC(Cn2ccnc2)c2ccc(Cl)cc2Cl)c(Cl)c1 (stereo not shown) [Miconazole Nitrate] | 8 |  |  |  | 16 |  |  |  |  |  |  |  |  |  |  |  |  | 
